In data set [1] the test system is JeKo-1. In words: cells. As to conditions: Homo sapiens, JeKo-1, 72 h.
Description: Antiproliferative activity against human JeKo-1 cells assessed as inhibition of cell growth incubated for 72 hrs by CCK8 assay
For data set [2], the target named is Tyrosine-protein kinase BTK (Homo sapiens, UniProt Q06187). In words: Inhibition of BTK (unknown origin) incubated for 40 mins by radiometric kinase assay.
The subject of the next data set is MOLT-4. As to the kind of experiment: cells. As to conditions: Homo sapiens, MOLT-4, 72 h.
The subject of a further data set is K562. As to the kind of experiment: cells. Conditions: Homo sapiens, K562, 72 h.
For data set [3], the system named is MV4-11. In words: cells. As to conditions: Homo sapiens, MV4-11, 72 h.
Data set [4] relates to JeKo-1. As to the kind of experiment: Induction of apoptosis in human JeKo-1 cells assessed as early apoptotic cells at 750 nM incubated for 72 hrs by Annexin VFITC/PI staining based flow cytometry analysis (reference value: 3.10%). The class given is functional. Background: In flow cytometry, cells or beads pass a laser one at a time.
Data set [5] has as its system JeKo-1. In words: Induction of apoptosis in human JeKo-1 cells assessed as necrotic cells at 750 nM incubated for 72 hrs by Annexin VFITC/PI staining based flow cytometry analysis (reference value: 0.67%). It is filed as functional.
The test system of data set [6] is JeKo-1. As to the kind of experiment: Induction of apoptosis in human JeKo-1 cells assessed as viable cells at 750 nM incubated for 72 hrs by Annexin VFITC/PI staining based flow cytometry analysis (reference value: 94.81%). The class given is functional.
Data set [7] relates to JeKo-1. In words: Induction of apoptosis in human JeKo-1 cells assessed as late apoptotic cells at 750 nM incubated for 72 hrs by Annexin VFITC/PI staining based flow cytometry analysis (reference value: 1.42%). The class given is functional.
Data set [8] concerns MV4-11. In words: Antitumor activity against human MV4-11 cells xenografted NOD/SCID mouse assessed as increase in tumor necrotic cells at 20 mg/kg, ip administered once daily for 21 days by H and E staining analysis. It is filed as functional, organism-based. Conditions: time 21.0 day. Background: A xenograft is tissue or cells of one species grown in another, often human tumour cells in immunodeficient mice.

A further data set concerns P-glycoprotein. In words: in vitro. Conditions: human, Caco-2.
Data set [9] in a line: in vitro. Conditions: human, Caco-2.
Description: Apparent permeability across basolateral to apical side in human Caco-2 cells incubated for 120 mins by LC-MS/MS analysis
Data set [10] is described as follows: in vitro. Conditions: human, Caco-2. The source holds these as a separate data set.
Description: Apparent permeability across apical to basolateral side in human Caco-2 cells incubated for 120 mins by LC-MS/MS analysis
Data set [11] is described as follows: Metabolic stability in human liver microsome assessed as intrinsic clearance preincubated with compound for 5 mins followed by NADPH addition and measured upto 60 mins by LC-MS/MS analysis. It is filed as ADME. Conditions: liver microsomes, time < 65 min, read-out: CLH. For orientation: Liver microsomes are vesicles of endoplasmic reticulum, rich in cytochrome P450 enzymes.

Data set [12] is described as follows: Metabolic stability in human liver microsome assessed as half life preincubated with compound for 5 mins followed by NADPH addition and measured upto 60 mins by LC-MS/MS analysis. The class given is ADME. As to conditions: liver microsomes, time < 65 min.
Data set [13] concerns JeKo-1. In words: Antitumor activity against human JeKo-1 cells xenografted NOD/SCID mouse assessed as tumor growth inhibition at 50 mg/kg, ip measured for 16 days. The class given is functional. As to conditions: JeKo-1, 384 h, time 16 day, read-out: TGI.
In data set [14] the test system is JeKo-1. As to the kind of experiment: Antitumor activity against human JeKo-1 cells xenografted NOD/SCID mouse assessed as reduction in tumor weight at 50 mg/kg, ip measured for 16 days. The class given is functional. Conditions: time 16 day.

Activity calls are given as the source filed them. The calls are words filed in the database; no cut-off is given here.

Tyrosine-protein kinase BTK, sequence (Q06187 whole entry): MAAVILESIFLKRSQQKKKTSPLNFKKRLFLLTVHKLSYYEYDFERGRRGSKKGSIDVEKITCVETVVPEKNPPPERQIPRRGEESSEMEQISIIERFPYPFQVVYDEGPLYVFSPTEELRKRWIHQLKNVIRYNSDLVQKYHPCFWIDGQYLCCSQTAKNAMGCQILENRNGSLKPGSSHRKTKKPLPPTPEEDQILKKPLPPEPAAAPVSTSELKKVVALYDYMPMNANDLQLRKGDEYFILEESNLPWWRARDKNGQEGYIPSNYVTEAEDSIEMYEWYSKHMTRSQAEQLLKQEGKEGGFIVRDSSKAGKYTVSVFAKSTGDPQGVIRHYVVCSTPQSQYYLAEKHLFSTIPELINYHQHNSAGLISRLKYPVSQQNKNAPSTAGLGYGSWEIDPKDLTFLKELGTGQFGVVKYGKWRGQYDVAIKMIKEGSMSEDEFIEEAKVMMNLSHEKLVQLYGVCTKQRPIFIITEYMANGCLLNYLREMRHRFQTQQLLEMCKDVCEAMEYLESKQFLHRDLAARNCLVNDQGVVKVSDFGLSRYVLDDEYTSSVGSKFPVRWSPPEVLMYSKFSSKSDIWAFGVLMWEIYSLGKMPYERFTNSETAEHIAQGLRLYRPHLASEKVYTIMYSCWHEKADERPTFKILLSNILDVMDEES
Description for K562: Antiproliferative activity against human K562 cells assessed as inhibition of cell growth incubated for 72 hrs by CCK8 assay
Description for MOLT-4: Antiproliferative activity against human MOLT-4 cells assessed as inhibition of cell growth incubated for 72 hrs by CCK8 assay
Description for P-glycoprotein: Efflux ratio of apparent permeability across basolateral to apical side over apical to basolateral side in human Caco-2 cells incubated for 120 mins in presence of P-glycoprotein by LC-MS/MS analysis

Take `NNC(=O)c1ccc(Nc2nc(Nc3ccc(N4CCCCC4)cc3)ncc2F)cc1`: the concentration for half-maximal inhibition (IC50) (in general, the concentration at which inhibition is half-maximal) in the data set with JeKo-1 [1] is above 2000 nM.

On to `CN1CCN(c2ccc(Nc3ncc(F)c(Nc4ccc(C(=O)NN)cc4)n3)cc2)CC1`, for which, in the data set with JeKo-1 [1], inhibition was half-maximal at 1410 nM (IC50).

In the data set on JeKo-1 [1], `CCN1CCN(c2ccc(Nc3ncc(F)c(Nc4ccccc4C(=O)NN)n3)cc2)CC1` gave a 50% inhibitory concentration (IC50) of 1280 nM.

As to `NNC(=O)c1ccccc1Nc1nc(Nc2ccc(N3CCOCC3)cc2)ncc1F`, the IC50 is 88 nM with JeKo-1 [1]; 105 nM in [2]; 239 nM in the data set with MOLT-4; above 25000 nM in the data set with K562; 41 nM with MV4-11 [3].

As to `NNC(=O)c1cccc(Nc2nc(Nc3ccc(N4CCOCC4)cc3)ncc2F)c1`, in the data set on JeKo-1 [1], the concentration for half-maximal inhibition (IC50) was found to be 801 nM.

Take `NNC(=O)c1cccc(Nc2nc(Nc3ccc(N4CCCCC4)cc3)ncc2F)c1`: half-maximal inhibition in the data set with JeKo-1 [1] (IC50) was put at 1240 nM.

Consider `CN1CCN(c2ccc(Nc3ncc(F)c(Nc4ccccc4C(=O)NN)n3)cc2F)CC1`, for which the IC50 in the data set with JeKo-1 [1] was found to be 52 nM; in data set [2], 84 nM; in the data set on MOLT-4, 65 nM; in the data set with K562 it was 690 nM; in the data set with MV4-11 [3] it was 31 nM.

For the molecule `CCN1CCN(c2ccc(Nc3ncc(F)c(Nc4ccc(C(=O)NN)cc4)n3)cc2)CC1`, in the data set on JeKo-1 [1], the IC50 was 1750 nM.

The molecule `COc1cc(N2CCN(C)CC2)ccc1Nc1ncc(F)c(Nc2ccccc2C(=O)NN)n1` returned a 50% inhibitory concentration (IC50) with JeKo-1 [1] above 2000 nM.

For `C=CC(=O)N1CCC[C@@H](n2nc(-c3ccc(Oc4ccccc4)cc3)c3c(N)ncnc32)C1` [IBRUTINIB], the Activity in the data set on JeKo-1 [4] is reported as 14.42%; with JeKo-1 [5] it was 0.18%; in the data set on JeKo-1 [6] it was 85.08%; in the data set with JeKo-1 [7], 0.32%. Moreover, the half-maximal inhibitory concentration (IC50) with JeKo-1 [1] came out at 1680 nM; in the data set on MOLT-4, 3520 nM; in the data set on K562, 5570 nM; with MV4-11 [3] it was 423 nM.

`CN1CCN(c2ccc(Nc3ncc(F)c(Nc4cccc(C(=O)NN)c4)n3)cc2)CC1` showed a 50% inhibitory concentration (IC50) in the data set with JeKo-1 [1] of 562 nM.

In the case of `CN1CCN(c2ccc(Nc3ncc(F)c(Nc4cccc(C(=O)NN)c4)n3)cc2F)CC1`, the half-inhibitory concentration (IC50) with JeKo-1 [1] is 222 nM.

In turn, `COc1cc(N2CCN(C)CC2)ccc1Nc1ncc(F)c(Nc2cccc(C(=O)NN)c2)n1` gave a 50% inhibitory concentration (IC50) in the data set with JeKo-1 [1] above 2000 nM.

Turning to `CNC(=O)c1cc(Oc2ccc(NC(=O)Nc3ccc(Cl)c(C(F)(F)F)c3)cc2)ccn1` [SORAFENIB], the result with MV4-11 [8] was Active. The concentration for half-maximal inhibition (IC50) worked out at 1070 nM in the data set on JeKo-1 [1], 2500 nM in the data set with MOLT-4 and 7740 nM in the data set with K562.

For the molecule `COc1cc(N2CCN(C)CC2)ccc1Nc1ncc(F)c(Nc2ccc(C(=O)NN)cc2)n1`, the IC50 in the data set with JeKo-1 [1] is above 2000 nM.

`CCN1CCN(c2ccc(Nc3ncc(F)c(Nc4cccc(C(=O)NN)c4)n3)cc2)CC1` came in with a half-maximal inhibitory concentration (IC50) in the data set on JeKo-1 [1] of 540 nM.

With `CC(C)NCC(O)COc1cccc2ccccc12` (stereo unspecified) [PROPRANOLOL], the efflux ratio (commonly a quotient of directional permeabilities that is used to spot active efflux) at 2 h with P-glycoprotein amounted to 0.62. In addition, the apparent permeability from basolateral to apical (Papp B→A) (usually how fast a substance crosses the layer from the basolateral side) at 2 h in the data set “in vitro [9]” was 20.1 ×10⁻⁶ cm/s. The apparent permeability from apical to basolateral (Papp A→B) (usually the apparent permeability from the apical to the basolateral side of a cell layer) at 2 h in “in vitro [10]” was determined as 32.4 ×10⁻⁶ cm/s.

`CN1CCN(c2ccc(Nc3ncc(F)c(Nc4ccc(C(=O)NN)cc4)n3)cc2F)CC1`: the IC50 with JeKo-1 [1] was found to be 1090 nM.

As to `O=C(O)Cc1ccccc1Nc1c(Cl)cccc1Cl` [DICLOFENAC], the CLint scaled in [11] was determined as 230 mL/min/kg. Moreover, the half-life (commonly the time in which the quantity being followed falls by half) in data set [12] was 5.44 min.

Take `C[C@H]1O[C@@H](O[C@H]2[C@@H](O)C[C@H](O[C@H]3[C@@H](O)C[C@H](O[C@H]4CC[C@@]5(C)[C@H](CC[C@@H]6[C@@H]5C[C@@H](O)[C@]5(C)[C@@H](C7=CC(=O)OC7)CC[C@]65O)C4)O[C@@H]3C)O[C@@H]2C)C[C@H](O)[C@@H]1O` [DIGOXIN]: in the data set on P-glycoprotein, the efflux ratio at 2 h was found to be 44.1. Further, the Papp B→A at 2 h in “in vitro [9]” is 11.2 ×10⁻⁶ cm/s. For the same molecule, in the data set “in vitro [10]”, the Papp A→B at 2 h was 0.25 ×10⁻⁶ cm/s.

As for `C=CC(=O)Nc1cccc(Nc2nc(Nc3ccc(OCCOC)cc3)ncc2F)c1` [SPEBRUTINIB], the inhibition in vivo at 50 mg/kg in the data set with JeKo-1 [13] came to 38.1%. Also, the IC50 with JeKo-1 [1] came to 1480 nM; in the data set on MOLT-4, 1460 nM; in the data set on K562, 7400 nM; with MV4-11 [3], 245 nM. The Activity in the data set with JeKo-1 [14] came out at 0.69 g.

Molecule `NNC(=O)c1ccc(Nc2nc(Nc3ccc(N4CCOCC4)cc3)ncc2F)cc1` displayed a half-maximal inhibitory concentration (IC50) in the data set on JeKo-1 [1] above 2000 nM.

In the data set with JeKo-1 [1], `NNC(=O)c1ccccc1Nc1nc(Nc2ccc(N3CCCCC3)cc2)ncc1F` displayed an IC50 of 1880 nM.

These data come from ChEMBL document CHEMBL5385861, “Development of novel hydrazidoarylaminopyrimidine-based BTK/FLT3 dual inhibitors with potent in vivo anti-hematological malignancies effects” (Eur J Med Chem, 2023).
